pIC50: −log10 of the molar value.
Columns and labels:
[1] = test system: T47D (PI3Kα H1047R mutant) cells; assay: Cell viability (CellTiter-Glo 2.0) in T47D cells; assay type: cell-based; settings: Homo sapiens, T47D, 72 h, approximately 72 hours
Procedure: This Example illustrates that representative compounds of the invention decrease the viability of cells.
The ability of a compound of Formula (I) to decrease the viability of cells was measured using CellTiter-Glo 2.0 (CTG) Luminescent Cell Viability Assay (#G9241) obtained from Promega (Madison, WI).
To prepare assay plates for viability assays, cells were trypsinized, resuspended in fresh media, and viable cells were counted utilizing trypan blue exclusion. T47D, SKBR3, or MKN1 cells were seeded at 1000 cells in 30 μl per well in a solid white flat bottom 384 cell culture plate (Perkin Elmer #6007680) and incubated at 37° C. overnight.
Assay day 1, cells were dosed using an Echo Liquid Handler (Beckman Coulter) with compounds at a 10 μm starting concentration and serially diluted (1:4) for a total of 10 concentrations. Cells were incubated for approximately 72 hours with the compounds (solubilized in DMSO) at 37° C. After 72 hours of treatment, cell plates were equilibrated to room temperature before adding 15 μl of CTG to each well, plates were then covered in aluminum foil to protect from light, incubated at room temperature for 30 minutes on a microtiter plate shaker, and luminescence readings were collected using a CLARIOstar microplate reader (BMG Labtech, Germany). Percent of vehicle control values were plotted as log(inhibitor) vs. response—Variable slope (four parameters) for curve fitting and IC50 values were determined using XLfit.

[2] = test system: pAKT in T47D (PI3Kα H1047R mutant) cells; assay: Inhibition of pAKT (alphaLISA Surefire Ultra AKT 1/2/3 pS473) in T47D cells; assay type: cell-based; settings: Homo sapiens; T47D (PI3Kα H1047R mutant) cells, 24 hr compound incubation, alphaLISA pS473; read-out: T47D (H1047R) pAKT 24 hr (IC50)
Procedure: The ability of a compound of Formula (I) to inhibit the formation of pAKT was measured using alphaLISA Surefire Ultra AKT 1/2/3 (pS473) Assay Kit (#ALSU-PAKT-B50K) was obtained from Perkin Elmer (Waltham, MA).
To prepare assay plates for pAKT alphaLISA assays, cells were trypsinized, resuspended in fresh media, and viable cells were counted utilizing trypan blue exclusion. Prior to seeding, cells were washed with PBS and resuspended in HBSS (Gibco, #14025092). T47D (12,000/w), SKBR3 (12,000/w), or MKN1 (24,000/w) cells were seeded at 12 μl per well in a solid white flat bottom 384 cell culture plate (Perkin Elmer #6007680).
Immediately after seeding, cells were dosed using an Echo Liquid Handler (Beckman Coulter) with compounds at a 10.4 μm starting concentration and serially diluted (1:4) for a total of 10 concentrations. 14 vehicle (DMSO) and 14 positive control (Alpelisib @3.125 μm) wells were included on each assay plate. Cells were incubated with the compounds (solubilized in DMSO) for approximately 24 hours at 37° C. After 24 hours of treatment, cells were lysed with 3 μl of the 5× lysis buffer (provided and incubated at room temperature for 15 min on a microtiter plate shaker). Once cells were sufficiently lysed, 7.5 μl of the acceptor bead mix (made using the manufacturers recommended dilutions) was added to each well and left on the microtiter plate shaker for 1 min prior to incubating plates at room temperature for 1 hour, in the absence of light. After 1 hour of incubation with the acceptor bead mix, 7.5 μl of the donor bead mix (made using the manufacturers recommended dilutions) was added to each well and left on the microtiter plate shaker for 1 min prior to incubating plates at room temperature overnight in the absence of light. Plates were then imaged the following day using a CLARIOstar microplate reader (BMG Labtech, Germany).
Percent of control values were calculated by subtracting the average signal from the positive control (alpelisib) treated wells from all treated wells (including DMSO control wells) and then divided by the average signal from the vehicle DMSO treated control wells. Percent of vehicle control values were plotted as log(inhibitor) vs. response—Variable slope (four parameters) for curve fitting and IC50 values were determined using XLfit.

SMILES | pIC50 [1] | pIC50 [2]
Cc1cc([C@@H](C)Nc2ccc(Cl)nc2C(=O)O)c2nc(N3CCN(c4ncc(C)s4)CC3)c(C#N)nc2c1 [Example 115, (R)-6-chloro-3-((1-(2-cyano-7-methyl-3-(4-(5-methylthiazol-2-yl)piperazin-1-yl)quinoxalin-5-yl)ethyl)amino)picolinic acid] | 7.50 | 9.00
Cc1cc([C@@H](C)Nc2ccc(Cl)nc2C(=O)O)c2nc(N3CC(F)(F)C4(CC4)C3)c(C#N)nc2c1 [Example 116, (R)-6-chloro-3-((1-(2-cyano-3-(7,7-difluoro-5-azaspiro[2.4]heptan-5-yl)-7-methylquinoxalin-5-yl)ethyl)amino)picolinic acid] | 6.70 | 7.82
Cc1cc([C@@H](C)Nc2ccc(Cl)nc2C(=O)O)c2nc(-n3ccnc3)c(C#N)nc2c1 [Example 117, (R)-6-chloro-3-((1-(2-cyano-3-(1H-imidazol-1-yl)-7-methylquinoxalin-5-yl)ethyl)amino)picolinic acid] | 6.30 | 7.18
Cc1cc([C@@H](C)Nc2ccc(Cl)nc2C(=O)O)c2nc(N3C4CCC3COC4)c(C#N)nc2c1 [Example 120, 3-(((1R)-1-(3-(3-oxa-8-azabicyclo[3.2.1]octan-8-yl)-2-cyano-7-methylquinoxalin-5-yl)ethyl)amino)-6-chloropicolinic acid] | 7.25 | 8.62
Cc1cc([C@@H](C)Nc2ccc(Cl)nc2C(=O)O)c2nc(N3C[C@@H](F)[C@@H](F)C3)c(C#N)nc2c1 [Example 122, 6-chloro-3-(((R)-1-(2-cyano-3-((3S,4R)-3,4-difluoropyrrolidin-1-yl)-7-methylquinoxalin-5-yl)ethyl)amino)picolinic acid] | 7.47 | 8.89
Cc1cc([C@@H](C)Nc2ccc(Cl)nc2C(=O)O)c2nc(N3CC(C)(C)C(F)(F)C3)c(C#N)nc2c1 [Example 123, (R)-6-chloro-3-((1-(2-cyano-3-(3,3-difluoro-4,4-dimethylpyrrolidin-1-yl)-7-methylquinoxalin-5-yl)ethyl)amino)picolinic acid] | 6.56 | 7.18
Cc1cc([C@@H](C)Nc2ccc(Cl)nc2C(=O)O)c2nc(NCCC(F)(F)F)c(C#N)nc2c1 [Example 124, (R)-6-chloro-3-((1-(2-cyano-7-methyl-3-((3,3,3-trifluoropropyl)amino)quinoxalin-5-yl)ethyl)amino)picolinic acid] | 6.90 | 8.72
Cc1cc([C@@H](C)Nc2ccc(Cl)nc2C(=O)O)c2nc(NCCC(=O)N(C)C)c(C#N)nc2c1 [Example 125, (R)-6-chloro-3-((1-(2-cyano-3-((3-(dimethylamino)-3-oxopropyl)amino)-7-methylquinoxalin-5-yl)ethyl)amino)picolinic acid] | 6.79 | 8.57
Cc1cc([C@@H](C)Nc2ccc(Cl)nc2C(=O)O)c2nc(N3CCC(c4ccnn4C)CC3)c(C#N)nc2c1 [Example 126, (R)-6-chloro-3-((1-(2-cyano-7-methyl-3-(4-(1-methyl-1H-pyrazol-5-yl)piperidin-1-yl)quinoxalin-5-yl)ethyl)amino)picolinic acid] | 7.61 | 9.10
Cc1cc([C@@H](C)Nc2ccccc2C(=O)O)c2nc(N3CC(F)(F)C3)c(C#N)nc2c1 [Example 127, (R)-2-((1-(2-cyano-3-(3,3-difluoroazetidin-1-yl)-7-methylquinoxalin-5-yl)ethyl)amino)benzoic acid] | 6.53 | 8.08
Cc1cc([C@@H](C)Nc2ccc(Cl)nc2C(=O)O)c2nc(N3CC(F)(F)C3)c(C#N)nc2c1 [Example 128, (R)-6-chloro-3-((1-(2-cyano-3-(3,3-difluoroazetidin-1-yl)-7-methylquinoxalin-5-yl)ethyl)amino)picolinic acid] | 6.92 | 8.85

Continued, values first:

pIC50 [1] | pIC50 [2] | SMILES
6.48 | 7.73 | Cc1cc([C@@H](C)Nc2ccccc2C(=O)O)c2nc(N3CCC4(CC3)C(F)(F)C4(F)F)c(C#N)nc2c1 [Example 129, (R)-2-((1-(2-cyano-7-methyl-3-(1,1,2,2-tetrafluoro-6-azaspiro[2.5]octan-6-yl)quinoxalin-5-yl)ethyl)amino)benzoic acid]
7.06 | 8.44 | Cc1cc([C@@H](C)Nc2ccc(Cl)nc2C(=O)O)c2nc(N3CC[C@H](CO)C3)c(C#N)nc2c1 [Example 158, 6-chloro-3-(((R)-1-(2-cyano-3-((S)-3-(hydroxymethyl)pyrrolidin-1-yl)-7-methylquinoxalin-5-yl)ethyl)amino)picolinic acid]
7.15 | 8.59 | Cc1cc([C@@H](C)Nc2ccc(Cl)nc2C(=O)O)c2nc(N3CC[C@@H](CO)C3)c(C#N)nc2c1 [Example 159, 6-chloro-3-(((R)-1-(2-cyano-3-((R)-3-(hydroxymethyl)pyrrolidin-1-yl)-7-methylquinoxalin-5-yl)ethyl)amino)picolinic acid]
7.07 | 8.34 | CC(=O)N1CCN(c2nc3c([C@@H](C)Nc4ccc(Cl)nc4C(=O)O)cc(C)cc3nc2C#N)CC1 [Example 160, (R)-3-((1-(3-(4-acetylpiperazin-1-yl)-2-cyano-7-methylquinoxalin-5-yl)ethyl)amino)-6-chloropicolinic acid]
7.32 | 8.34 | Cc1cc([C@@H](C)Nc2ccc(Cl)nc2C(=O)O)c2nc(N3CCC(=O)CC3)c(C#N)nc2c1 [Example 161, (R)-6-chloro-3-((1-(2-cyano-7-methyl-3-(4-oxopiperidin-1-yl)quinoxalin-5-yl)ethyl)amino)picolinic acid]
7.46 | 8.80 | Cc1cc([C@@H](C)Nc2ccc(Cl)nc2C(=O)O)c2nc(N3CCc4ccncc4C3)c(C#N)nc2c1 [Example 162, (R)-6-chloro-3-((1-(2-cyano-3-(3,4-dihydro-2,7-naphthyridin-2(1H)-yl)-7-methylquinoxalin-5-yl)ethyl)amino)picolinic acid]
6.72 | 8.17 | Cc1cc([C@@H](C)Nc2ccc(Cl)nc2C(=O)O)c2nc(N3C[C@@H]4[C@H](CO)[C@@H]4C3)c(C#N)nc2c1 [Example 163, 6-chloro-3-(((R)-1-(2-cyano-3-((1R,5S,6S)-6-(hydroxymethyl)-3-azabicyclo[3.1.0]hexan-3-yl)-7-methylquinoxalin-5-yl)ethyl)amino)picolinic acid]
7.41 | 8.92 | COC[C@@H]1[C@H]2CN(c3nc4c([C@@H](C)Nc5ccc(Cl)nc5C(=O)O)cc(C)cc4nc3C#N)C[C@@H]12 [Example 166, 6-chloro-3-(((R)-1-(2-cyano-3-((1R,5S,6R)-6-(methoxymethyl)-3-azabicyclo[3.1.0]hexan-3-yl)-7-methylquinoxalin-5-yl)ethyl)amino)picolinic acid]
6.82 | 8.34 | Cc1cc([C@@H](C)Nc2ccc(Cl)nc2C(=O)O)c2nc(N3C[C@@H]4[C@@H](CO)[C@@H]4C3)c(C#N)nc2c1 [Example 167, 6-chloro-3-(((R)-1-(2-cyano-3-((1R,5S,6R)-6-(hydroxymethyl)-3-azabicyclo[3.1.0]hexan-3-yl)-7-methylquinoxalin-5-yl)ethyl)amino)picolinic acid]
7.57 | 9.52 | Cc1cc([C@@H](C)Nc2ccc(Cl)nc2C(=O)O)c2nc(N3C[C@@H]4C[C@H]3CO4)c(C#N)nc2c1 [Example 173, 3-(((R)-1-(3-((1S,4S)-2-oxa-5-azabicyclo[2.2.1]heptan-5-yl)-2-cyano-7-methylquinoxalin-5-yl)ethyl)amino)-6-chloropicolinic acid]

From US20240391882A1 (Mirati Therapeutics, Inc., priority 2023, published 2024)
